{"source": "paper PMC9691367", "about": "“The PROTAC selectively degrading Bcl-xL represents a novel Hedgehog pathway inhibitor with capacity of combating resistance to Smoothened inhibitors while sparing bone growth” (Theranostics, 2022)", "key": {"[1]": {"biological_target": "Mcl-1 (Homo sapiens, UniProt Q07820)", "sequence (Q07820 whole entry, species assumed)": "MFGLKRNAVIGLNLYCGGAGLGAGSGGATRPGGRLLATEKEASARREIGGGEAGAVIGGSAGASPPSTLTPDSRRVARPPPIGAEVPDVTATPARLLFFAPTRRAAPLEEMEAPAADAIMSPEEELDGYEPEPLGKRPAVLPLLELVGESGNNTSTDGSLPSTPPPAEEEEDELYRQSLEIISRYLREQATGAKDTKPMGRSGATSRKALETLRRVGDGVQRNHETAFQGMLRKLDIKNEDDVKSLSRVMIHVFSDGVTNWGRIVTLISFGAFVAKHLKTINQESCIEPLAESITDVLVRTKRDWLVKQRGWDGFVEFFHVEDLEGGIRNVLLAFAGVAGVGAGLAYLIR", "assay": "Competitive fluorescence polarization assay, Mcl-1 / FAM-Bim", "format": "binding", "details": "Mcl-1 100 nM, FAM-Bim 5 nM", "protocol": "Competitive fluorescence polarization assays were carried out in black-walled plates in assay buffer (20 mM Na2HPO4 ·12H2O, 20 mM NaH2PO4·12H2O, 1 mM EDTA, 50 mM NaCl, 0.05% PF-68). The use of protein/peptide probe pairs was as follows: Bcl-xL (5 nM) and FAM-Bad (5 nM), Bcl-2 (100 nM) and FAM-Bax (5 nM), Mcl-1 (100 nM) and FAM-Bim (5 nM). Assay buffer, proteins, drugs, and peptides were added to the assay plates sequentially. The assay plates were slightly shaken for 3 min and incubated for 30 min at room temperature. The fluorescence polarization was measured on a Synergy 2 reader (BioTek)."}, "[2]": {"biological_target": "T1, Bcl-xL/CRBN (Homo sapiens, UniProt Q07817+Q96SW2)", "T1 construct": "purchased Cisbio 63ADK000CB37PEG", "T1 sequence (Q07817 whole entry, species assumed)": "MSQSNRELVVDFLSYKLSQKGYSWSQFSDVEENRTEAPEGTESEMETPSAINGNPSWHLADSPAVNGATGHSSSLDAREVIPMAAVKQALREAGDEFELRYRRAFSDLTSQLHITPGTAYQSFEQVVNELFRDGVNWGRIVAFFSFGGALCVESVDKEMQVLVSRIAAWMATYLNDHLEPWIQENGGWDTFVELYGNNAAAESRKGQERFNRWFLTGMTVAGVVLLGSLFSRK", "T1 sequence (Q96SW2 whole entry, species assumed)": "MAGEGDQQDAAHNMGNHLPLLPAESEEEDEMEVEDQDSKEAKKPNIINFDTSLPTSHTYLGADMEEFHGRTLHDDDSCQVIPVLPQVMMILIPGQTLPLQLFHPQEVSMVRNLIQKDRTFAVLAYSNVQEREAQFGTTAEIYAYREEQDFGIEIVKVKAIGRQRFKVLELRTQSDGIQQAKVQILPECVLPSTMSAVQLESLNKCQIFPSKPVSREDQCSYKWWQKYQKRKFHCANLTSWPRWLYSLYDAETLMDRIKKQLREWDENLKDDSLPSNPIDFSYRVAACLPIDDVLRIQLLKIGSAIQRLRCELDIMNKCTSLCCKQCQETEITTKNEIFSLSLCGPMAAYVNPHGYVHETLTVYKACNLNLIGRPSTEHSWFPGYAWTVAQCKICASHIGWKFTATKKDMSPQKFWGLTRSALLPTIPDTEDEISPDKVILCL", "assay": "HTRF assay for ternary complex formation", "format": "binding", "protocol": "Bcl-xL/CRBN ternary HTRF assay was used to monitor ternary complex formation between target protein, PROTAC and E3 ligase. Bcl-xL/CRBN PROTAC BINDING ASSAY KITS was purchased from Cisbio (#63ADK000CB37PEG). 200 nL compounds were transferred into 384 assay plate, followed by centrifuging at 1000 RPM. Then 5 µL Bcl-xL and CRBN protein were added into each assay well. After incubation at 25 °C for 15 min, 10 µL Tag2-Eu&Tag1-d2 working solution was added into each assay well and incubated 25 °C for 120 min. The Relative HTRF value was read with BMG (PHERAstar FSX)."}, "[3]": {"biological_target": "T2, Bcl-xL (Mus musculus, UniProt Q64373)", "T2 construct": "endogenous in cells; host or cells: NIH-3T3", "T2 sequence (Q64373 whole entry)": "as the sequence (Q07817 whole entry, species assumed) above, with G40E, S43A, M45R, A168S, E193D counted along it", "assay": "Western blot of Bcl-xL degradation in NIH-3T3 cells", "format": "cell-based", "protocol": "(§1) Cells were lysed in cell lysis buffer (50 mM Tris pH 8.0, 150 mM NaCl, 10% glycerol, 1 mM EDTA, 50 mM NaF, and 0.1% NP-40) supplemented with protease and phosphatase inhibitors. Total protein extracts of tissues were generated in radioimmunoprecipitation (RIPA) assay lysis buffer containing complete protease and phosphatase inhibitor cocktail. Protein content was quantified using the Pierce BCA Protein Assay Kit (#23225, Thermo Fisher Scientific). The proteins were separated by SDS-PAGE, electrophoretically transferred to polyvinylidene difluoride (PVDF) blotting membranes (#LC2002, Thermo Fisher Scientific), and subjected to routine immunoblot analysis with primary antibodies as follows: anti-Bcl-2 (#15071), anti-Mcl-1 (#94296), anti-VHL (#68547), anti-CRBN (#71810), and anti-Sufu (#2522) were obtained from Cell Signaling Technology (Danvers, Massachusetts, USA); anti-Bcl-xL (#ab32370), anti-Gli1 (#ab134906), and anti-Smoothened (#ab236465) were obtained from Abcam (Cambridge, CB2 0AX, UK); anti-GAPDH (#60004-1-Ig) and anti-β-tubulin (#10094-1-AP) were purchased from Proteintech Group, Inc. (Rosemont, IL 60018, USA). The results were quantified by densitometry using ImageJ software (NIH)."}, "[4]": {"system": "Bcl-2 and Mcl-1", "assay": "Western blot of Bcl-2 and Mcl-1 in NIH-3T3 cells", "format": "cell-based", "details": "1 µM", "protocol": "as §1"}, "[5]": {"system": "Hh pathway (Gli-luciferase) in light II cells", "assay": "Dual luciferase reporter assay, Gli-luciferase provoked by SAG in light II cells", "format": "cell-based", "details": "SAG 100 nM, 36 h, read-out: IC50 value inhibiting the Gli-luciferase activity provoked by SAG", "protocol": "(§2) Cells seeded in 96-well plates were treated with various treatments as indicated. The luciferase activity in the cell lysates was measured using Dual-Luciferase Reporter Assay System (Promega, Madison, WI, USA) according to the manufacturer's instructions in a luminometer (Molecular Devices, Sunnyvale, CA). The firefly luciferase values were normalized to Renilla values."}, "[6]": {"system": "Wnt signaling pathway", "assay": "TCF/LEF luciferase reporter assay in LS174T cells", "format": "cell-based", "details": "PGE2 1 μM, 24 h, SIAIS361034 10 μM, H-89 20 μM", "protocol": "as §2, with “values. […]” for “values.”\nμM) for 6 h. Data represent mean ± SD (n = 3). (C) TCF/LEF luciferase analysis of the effect of SIAIS361034 on Wnt signaling pathway in LS174T cells. The LS174T cellswere transfected with TCF/LEF luciferase reporter and Renilla-TK plasmids and […]\nData represent mean ± SD (n = 3).\n(1 picture or pasted object on this page, not shown here)"}, "[7]": {"system": "Sufu/Gli1 interaction", "assay": "Co-immunoprecipitation of Sufu with Gli1 in NIH-3T3 cells", "format": "cell-based", "details": "1 µM", "protocol": "Cells were lysed in immunoprecipitation lysis buffer (#87787, Thermo Fisher Scientific) supplemented with protease and phosphatase inhibitor cocktail. Cell lysates were incubated with the indicated antibodies at 4 °C overnight, followed by incubation with Protein A/G Plus-Agarose beads (Santa Cruz Biotechnology) at 4 °C for 4 h. Immunoprecipitates were collected by centrifugation and washed three times with washing buffer. The complex was separated from the beads and then boiled for 10 min. The immunoprecipitates and inputs were analyzed by SDS-PAGE and immunoblot using the antibodies as indicated."}, "[8]": {"system": "platelets", "assay": "Platelet toxicity assay in C57BL/6J mice", "format": "in vivo, mouse", "details": "8 h and 24 h", "description": "Blood was collected at different time points via retro-orbital bleeding in anticoagulation tube. Platelets or different blood cells were enumerated using BM800 blood analyzer (Bowlinman Sunshine)."}}, "data": [{"smiles": "CC1(C)CCC(c2ccc(Cl)cc2)=C(CN2CCN(c3ccc(C(=O)NS(=O)(=O)c4ccc(NCCCN5CCN(CCCC#Cc6cccc7c6CN(C6CCC(=O)NC6=O)C7=O)CC5)c(S(=O)(=O)C(F)(F)F)c4)cc3)CC2)C1", "note": "(stereo not drawn) [SIAIS361034]", "values": [{"measurement": "Ki", "setting": "[1]", "value": "> 10", "unit": "µM"}, {"measurement": "Ternary complex formation with Bcl-xL and CRBN E3 ligase", "setting": "[2]", "value": "could form a stable ternary complex"}, {"measurement": "duration of Bcl-xL degradation", "setting": "[3]; 1 µM for 24 h followed by drug withdrawal", "value": "around 48 h"}, {"measurement": "Bcl-xL degradation", "setting": "[3]; 1 µM, western blot", "value": "significantly degraded Bcl-xL"}, {"measurement": "Dmax", "setting": "[3]; NIH3T3, 24 h, western blot, read-out: maximum degradation (Dmax) of Bcl-xL", "value": 88.1, "unit": "%"}, {"measurement": "effect on Bcl-xL mRNA levels", "setting": "[3]; data not shown", "value": "almost no effect"}, {"measurement": "levels of Bcl-2 and Mcl-1", "setting": "[4]", "value": "did not change the levels of Bcl-2 and Mcl-1"}, {"measurement": "IC50", "setting": "[5]", "value": 0.12, "unit": "µM"}, {"measurement": "TCF/LEF luciferase activity (Wnt signaling) activated by PGE2", "setting": "[6]", "value": "failed to repress"}, {"measurement": "interaction of Sufu with Gli1", "setting": "[7]", "value": "increased the interaction of Sufu with Gli1"}, {"measurement": "number of platelets", "setting": "[8]; SIAIS361034 single i.p. 50 and 100 mg/kg, ABT-263 single p.o. 100 mg/kg", "value": "no appreciable alterations"}, {"measurement": "other blood cells (neutrophils, red blood cells)", "setting": "[8]; single i.p. 50 and 100 mg/kg", "value": "no influence"}]}]}
